Assay results taken from ChEMBL document CHEMBL1201862, “PubChem BioAssay data set” (2004).
Activity calls are given as the source filed them. Rule as the data show it, for most assays here: actives have a measured EC50 and inactives only a lower limit.

Tests used:
Cytochrome P450 2D6 = Cytochrome P450 2D6 (Homo sapiens, UniProt P10635);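 also: CYP2D6 member of a cytochrome P450 panel assay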
[1] = target: T1, Heat shock factor protein 1 (Mus musculus, UniProt P38532); test: HSF1 potentiators in luciferase reporter cells, confirmation, cell-based, NIH3T3, luminescence, dose retest (AID 435004); format: functional;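 also: stress induced by proteasome inhibitor MG132 added 30 min after compound; luciferase reporter driven by HSF1 response element in NIH3T3 cells; actives raise luminescence as potentiators of the MG132 stress response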
T1 sequence (P38532 whole entry): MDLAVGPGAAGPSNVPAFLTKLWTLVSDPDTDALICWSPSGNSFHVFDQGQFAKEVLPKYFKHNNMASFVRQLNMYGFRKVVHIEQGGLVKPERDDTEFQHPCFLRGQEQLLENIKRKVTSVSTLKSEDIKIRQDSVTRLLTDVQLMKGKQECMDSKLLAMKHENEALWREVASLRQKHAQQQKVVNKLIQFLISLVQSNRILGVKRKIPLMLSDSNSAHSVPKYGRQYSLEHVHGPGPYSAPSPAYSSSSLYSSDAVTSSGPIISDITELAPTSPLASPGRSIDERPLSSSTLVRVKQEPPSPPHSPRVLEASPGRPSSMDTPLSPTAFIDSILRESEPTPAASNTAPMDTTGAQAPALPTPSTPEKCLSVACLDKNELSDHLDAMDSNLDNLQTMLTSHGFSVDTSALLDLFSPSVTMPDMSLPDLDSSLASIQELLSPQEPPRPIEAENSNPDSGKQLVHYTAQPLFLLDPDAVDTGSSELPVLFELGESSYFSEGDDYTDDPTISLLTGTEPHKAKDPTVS

[2] = target: T2, Corticotropin-releasing factor receptor 2/Corticotropin-releasing factor-binding protein (Homo sapiens, UniProt P24387+Q13324); test: activators of CRF receptor 2 with binding protein – uHTS hits, confirmation (AID 602473); format: functional; conditions: read-out: EC50_Mean
T2 sequence (Q13324 whole entry): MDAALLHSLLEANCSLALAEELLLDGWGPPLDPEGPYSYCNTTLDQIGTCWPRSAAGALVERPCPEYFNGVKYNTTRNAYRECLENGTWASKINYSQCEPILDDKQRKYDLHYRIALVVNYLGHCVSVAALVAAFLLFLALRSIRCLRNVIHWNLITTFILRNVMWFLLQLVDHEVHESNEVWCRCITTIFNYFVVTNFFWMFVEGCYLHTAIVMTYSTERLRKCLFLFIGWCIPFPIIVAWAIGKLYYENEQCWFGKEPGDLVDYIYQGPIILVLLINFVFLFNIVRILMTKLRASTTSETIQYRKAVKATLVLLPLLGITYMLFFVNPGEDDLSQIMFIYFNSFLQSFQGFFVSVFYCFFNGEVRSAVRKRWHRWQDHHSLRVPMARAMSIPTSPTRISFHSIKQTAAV
T2 sequence (P24387 whole entry): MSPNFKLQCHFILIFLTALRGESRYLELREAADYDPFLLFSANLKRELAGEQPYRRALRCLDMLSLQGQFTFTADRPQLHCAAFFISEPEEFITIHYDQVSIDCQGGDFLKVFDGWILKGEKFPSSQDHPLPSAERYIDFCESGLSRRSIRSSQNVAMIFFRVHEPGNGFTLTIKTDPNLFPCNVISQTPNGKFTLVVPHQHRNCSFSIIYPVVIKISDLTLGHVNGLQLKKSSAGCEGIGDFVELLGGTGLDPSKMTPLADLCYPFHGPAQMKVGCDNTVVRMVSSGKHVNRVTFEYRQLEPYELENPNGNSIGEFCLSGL

[3] = target: T1, Heat shock factor protein 1; test: inhibition of MG132-induced HSE-luciferase signal, confirmation, cell-based, NIH3T3, luminescence, dose retest (AID 2382); format: functional;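 also: NIH3T3 fibroblasts with HSF1-driven luciferase reporter stressed by proteasome inhibitor MG132; luminescence from HSF1-driven luciferase expression after 8 hours of MG132 stress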
[4] = cytotoxicity toward NIH3T3 fibroblasts, dose response, counter-screen, cell-based, ATP luminescence, mouse fibroblasts (AID 2010); format: functional;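 also: cells exposed to compound for about 90 hours before reading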
[5] = inhibitors of intracellular T. cruzi replication, confirmation, NIH3T3 host cells, beta-gal luminescence (AID 2044); format: functional, cell-based;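 also: intracellular parasites grown in NIH/3T3 mouse fibroblasts as host cells; luminescent beta-galactosidase reporter signal from transgenic T. cruzi replicating inside host cells; inhibitors lower the luminescence signal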
[6] = system: Streptococcus sp. 'group A'; test: growth inhibition of control SK(-) GAS strain, dose response, counter-screen for streptokinase expression inhibitor project, luminescence, kanamycin, BacTiterGlo, confirmation (AID 1900); format: functional, organism-based
Streptococcus = test: Group A Streptococcus viability loss, dose response, counter-screen for streptokinase expression inhibitor project, luminescence, BacTiterGlo (AID 1915); format: functional, organism-based;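 also: potency for reduction of bacterial viability or growth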

Chain of Cytochrome P450 2D6 (P10635 whole entry): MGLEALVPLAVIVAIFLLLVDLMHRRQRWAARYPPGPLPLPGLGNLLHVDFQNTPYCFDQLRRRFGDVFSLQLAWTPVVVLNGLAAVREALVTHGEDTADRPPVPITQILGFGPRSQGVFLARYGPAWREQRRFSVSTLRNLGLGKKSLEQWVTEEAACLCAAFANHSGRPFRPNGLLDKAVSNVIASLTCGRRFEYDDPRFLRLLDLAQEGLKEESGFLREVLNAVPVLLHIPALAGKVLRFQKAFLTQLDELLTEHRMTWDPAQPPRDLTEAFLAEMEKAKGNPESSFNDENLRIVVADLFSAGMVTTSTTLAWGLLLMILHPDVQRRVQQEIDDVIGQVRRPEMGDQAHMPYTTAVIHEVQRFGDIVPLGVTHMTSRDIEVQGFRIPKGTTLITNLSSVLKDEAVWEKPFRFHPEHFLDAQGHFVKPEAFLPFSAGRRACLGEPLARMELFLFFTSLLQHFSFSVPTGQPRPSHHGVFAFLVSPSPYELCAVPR

CCCC(=O)NCCc1c2n(c3ccc(OC)cc13)Cc1ccccc1-2
AC50 (Cytochrome P450 2D6): 39.8 µM (inconclusive)

Cc1ccnc(NC(=O)c2cc3cc(F)ccc3s2)c1
EC50 [1]: > 260 µM (inactive)

CCOc1ccc(NS(=O)(=O)c2ccc(C(=O)NCC(c3ccco3)N3CCCC3)cc2)cc1 (configuration not stated)
EC50 [2]: 6.17 µM (active)

CCc1cccc(NC(=O)C2CCCN(S(=O)(=O)c3cccs3)C2)c1 (configuration not stated)
EC50 [3]: > 195 µM (not active)

O=C(Nc1cccc(S(=O)(=O)N2CCOCC2)c1)c1cn(-c2ccccc2)nc1-c1ccc(F)cc1
EC50 [4]: > 60 µM (inconclusive) | EC50 [5]: 2.49 µM (active)

O=C(NCC1CCCN(Cc2ccc3nonc3c2)C1)c1cccc(C(F)(F)F)c1 (configuration not stated)
EC50 [4]: > 60 µM (not active) | EC50 [5]: 0.771 µM (active)

COc1ccc(-c2nc(C#N)c(NCc3cccnc3)o2)cc1OC
EC50 [4]: > 60 µM (not active) | EC50 [5]: 1.8 µM (active)

CCOC(=O)N1CCN(c2nc(-c3ccco3)cc(C(F)(F)F)n2)CC1
AC50 (Cytochrome P450 2D6): 14.1 µM (inconclusive)

CCOc1cc(CNCC2CCCN2CC)cc(Cl)c1OC (configuration not stated)
EC50 [3]: 63.1 µM (active)

Cc1ccc(C(=O)Cn2nnc(-c3ccccc3-n3cnnn3)n2)cc1
EC50 [1]: > 260 µM (inactive)

c1cn(-c2ncnc3ccc(-c4ccoc4)cc23)cn1
AC50 (Cytochrome P450 2D6): 39.8 µM (inconclusive)

CCC12CN3CC(CC)(CN(C1)C3c1ccc([N+](=O)[O-])o1)C2=O (configuration not stated)
EC50 [4]: > 30 µM (not active) | EC50 [5]: 0.85 µM (active)

Cc1c(Cl)cccc1NC(=O)Nc1cnccn1
EC50 [3]: > 195 µM (not active)

O=C(NCCc1nc2ccccc2[nH]1)/C(=C/c1ccc(F)cc1)NC(=O)c1ccco1
EC50 [1]: > 260 µM (inactive)

O=C(COC(=O)COc1cccc(Br)c1)Nc1c(Cl)cccc1Cl
EC50 [1]: > 260 µM (inactive)

O=[N+]([O-])c1cc(Br)c(OCc2nnc(-c3ccccc3)o2)c(Br)c1
EC50 [4]: > 60 µM (not active) | EC50 [5]: 1.75 µM (active)

Cc1cc(Cn2ccnc2)c(C)cc1Cn1ccnc1
EC50 [4]: > 60 µM (not active) | EC50 [5]: 2.45 µM (active)

Cc1ccc(C(NC(=O)/C=C\c2ccc3c(c2)OCO3)C(=O)Nc2ccc3c(c2)OCO3)cc1 (configuration not stated)
EC50 [1]: > 260 µM (inactive)

COC(=O)CNC(c1ccccc1)c1cc(Br)ccc1NC(=O)CCN1CCOCC1 (configuration not stated)
EC50 [4]: > 60 µM (not active) | EC50 [5]: 6.7 µM (active)

Cc1ccc(-n2nc3c(=O)n(CCCC(=O)N4CCC(C(N)=O)CC4)nc(C)c3c2C)cc1
EC50 [3]: > 195 µM (not active)

COc1ccc(/C=C(\C#N)C(=O)Nc2cccc(C)n2)cc1
EC50 [1]: 165 µM (active)

CCOC(=O)c1c(NC(C)=O)sc2c(OCCN(CC)CC)c(Br)ccc12
EC50 [4]: > 60 µM (not active) | EC50 [5]: 1.58 µM (active)

Cn1c(N)c(C(=O)Nc2ccc(-c3ccccc3)cc2)sc1=S
EC50 [3]: > 195 µM (not active)

COc1cc(OC)cc(C(=O)Nc2nc(-c3ccccc3)c(-c3ccccc3)o2)c1
EC50 [6]: 0.617 µM (active) | EC50 (Streptococcus): 1.34 µM (active)

COCc1cc(CN2CCN(CCc3ccccc3)C(CCO)C2)ccc1OC (configuration not stated)
EC50 [1]: > 260 µM (inactive)

O=C1CC(c2ccc(Cl)cc2)n2nc(NS(=O)(=O)c3ccc(F)cc3)nc2N1 (configuration not stated)
EC50 [1]: > 260 µM (inactive)

O=C(Cc1ccccc1)Oc1ccccc1N1C(=O)CCC1=O
EC50 [3]: > 195 µM (not active)

CCOc1ccc(/C=C2\SC(=O)N(CCNC(=O)C3COc4ccccc4O3)C2=O)cc1OC (configuration not stated)
EC50 [3]: > 195 µM (not active)

COc1ccccc1C(=O)C1CCCN(Cc2c[nH]nc2C2CCCCC2)C1 (configuration not stated)
EC50 [4]: > 60 µM (not active) | EC50 [5]: 0.604 µM (active)

CCN(CC)c1ccc(/C=C2/C(=O)N(c3ccc([N+](=O)[O-])cc3)N=C2N2CCOCC2)cc1
EC50 [1]: > 260 µM (inactive)

C=CCC(C(=O)OC)(C(=O)OC)c1ccc([N+](=O)[O-])cc1[N+](=O)[O-]
EC50 [4]: > 60 µM (not active) | EC50 [5]: 2.42 µM (active)

COCCN(Cc1c[nH]nc1-c1ccc2cc(OC)ccc2c1)C(C)C
EC50 [4]: > 60 µM (not active) | EC50 [5]: 1.56 µM (active)

Cc1ccc(OCC(=O)c2cc(C)n(-c3ccccc3)c2C)c([N+](=O)[O-])n1
EC50 [3]: 0.623 µM (active)

CCn1c2ccccc2c2cc(NS(=O)(=O)c3ccccc3C)ccc21
AC50 (Cytochrome P450 2D6): 8.91 µM (inconclusive)

COc1ccc(OC)c(Nc2nc3ccc(C)cc3n3cnnc23)c1
EC50 [1]: > 260 µM (inactive)

Cc1ccc(C(=O)NCCc2nc3ccccc3[nH]2)cc1[N+](=O)[O-]
EC50 [4]: > 60 µM (inconclusive) | EC50 [5]: 1.03 µM (active)

CCN=C(S)NNC(=O)c1cccn(Cc2ccc(Cl)cc2Cl)c1=O
EC50 [2]: 7.26 µM (active)

O=C(NCc1ccccn1)c1cc(-c2ccc(-c3ccccc3)cc2)nc2ccccc12
EC50 [1]: 0.461 µM (active)

CN(C)C(CNC(=O)CCC(=O)c1ccc(Br)cc1)c1ccccc1 (configuration not stated)
EC50 [1]: > 260 µM (inactive)

CCCCOc1ccc(CSC2=NCCN2)cc1[N+](=O)[O-]
EC50 [4]: > 30 µM (not active) | EC50 [5]: 0.46 µM (active)

Cc1ccc(-n2nc(C)c3cc(C(=O)O)sc32)cc1
EC50 [3]: > 195 µM (not active)

CN(C)S(=O)(=O)N1CCN(C(=O)N2CCCCC2)CC1
EC50 [3]: > 195 µM (not active)

O=[N+]([O-])c1ccc(Nc2ccc(F)cc2)cc1
EC50 [3]: > 195 µM (not active)

O=C(c1ccc(-n2cncn2)c([N+](=O)[O-])c1)N1CCN(S(=O)(=O)c2ccccc2F)CC1
EC50 [3]: > 195 µM (not active)

CCN(C(=O)c1cc2c(O)nc3ccc(C)cc3c2s1)c1ccccc1F
EC50 [1]: > 260 µM (inactive)

O=S(=O)(NC1CCCCC1N1CCN(c2ccc(F)cc2)CC1)c1ccc(Cl)cc1 (configuration not stated)
EC50 [2]: 3.94 µM (active)

Cc1cccc(C(=O)NNC(=O)CCn2nnc3ccccc32)c1
EC50 [1]: > 260 µM (inactive)

COc1ccc(C(=O)C2=C(O)C(=O)N(CCN(C)C)C2c2cccnc2)cc1C (configuration not stated)
EC50 [2]: > 53 µM (inactive)

CS/C(=N\C#N)N1CCN(c2ccc(Cl)cc2)CC1
EC50 [1]: 129 µM (active)

C/C(CC(=O)Nc1cccc2c1CCCC2)=N\NC(=O)COc1ccccc1
EC50 [1]: > 260 µM (inactive)

Cc1nc2c(cc1C(=O)N/N=C/c1ccc(O)c(O)c1)c(=O)n(C)c(=O)n2C
EC50 [3]: > 195 µM (not active)

C/C(=N\NC(=O)C(N)=O)c1ccc(O)cc1O
EC50 [3]: > 195 µM (not active)

O=C(N/N=C/c1ccc(-c2ccc(Br)cc2)o1)c1ccc2c(c1)OCO2
EC50 [4]: > 60 µM (inconclusive) | EC50 [5]: 1.47 µM (active)

CC(/C=N\NC(=O)c1cc(C)oc1C)=C\c1ccccc1
EC50 [3]: > 195 µM (not active)

CCn1c(N)nc2ccccc21
AC50 (Cytochrome P450 2D6): 17.8 µM (inconclusive)

COc1ccc(CNc2ncnc3ccc(-c4cccc(NS(C)(=O)=O)c4)cc23)c(OC)c1
AC50 (Cytochrome P450 2D6): 10 µM (inconclusive)

CCOC(=O)NNc1nncc2ccccc12 [TODRALAZINE]
AC50 (Cytochrome P450 2D6): 12.6 µM (inconclusive)
